Here are results for two compounds from patent US12077495B2 (priority 2018, dated 2024).

For one series, the system named is rodents. Nature of the series: Observation of acute toxicity or sedation in rodents. Conditions: doses as high as 500 mg/kg. The series is classed as in vivo.
The conditions of series [1]: peripheral administration; cited from earlier work.
Series [2] deals with T1, high-affinity forebrain binding sites (Mus musculus, UniProt P11798).
T1 construct: from tissue; host or cells: C57BL/6J mouse brain (hippocampus, cortex) after i.p. injection of 3H-A
T1 sequence (P11798 whole entry): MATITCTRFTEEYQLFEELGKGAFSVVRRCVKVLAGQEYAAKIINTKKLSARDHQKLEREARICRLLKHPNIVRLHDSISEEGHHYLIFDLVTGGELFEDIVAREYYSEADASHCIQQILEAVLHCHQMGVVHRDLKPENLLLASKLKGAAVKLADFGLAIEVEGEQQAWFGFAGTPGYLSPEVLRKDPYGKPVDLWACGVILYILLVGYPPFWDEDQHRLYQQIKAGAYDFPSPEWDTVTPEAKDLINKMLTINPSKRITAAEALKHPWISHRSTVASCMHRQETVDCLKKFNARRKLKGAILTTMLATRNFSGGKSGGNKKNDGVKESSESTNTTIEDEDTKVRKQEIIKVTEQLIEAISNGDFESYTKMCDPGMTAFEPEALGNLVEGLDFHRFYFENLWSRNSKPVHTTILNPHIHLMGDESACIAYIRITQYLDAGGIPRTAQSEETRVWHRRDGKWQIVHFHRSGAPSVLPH
The series is described as follows: Ex vivo 3H-A radioligand binding, autoradiography of mouse brain sections. It counts as in vivo, mice. Conditions: 5 MBq per mouse i.p.; 30 min. The protocol:
^3H-A was used to perform ex vivo binding to C57BL/6J mice. Thus, in a design with 5 mice per group, ^3H-A (5 MBq per mouse) was injected i.p. After 30 min, the brains were dissected and autoradiography performed.

A further series addresses T2, CAMK2A (Rattus norvegicus, UniProt P11275).
T2 construct: host or cells: HEK293T
The series is described as follows: biochemical. It counts as binding. The conditions noted are these: non-specific: 1 mM GHB. The protocol: Cells were transfected with rat CAMK2A (Origene construct RR201121) or rat CAMK2B (Origene construct RR200520) using PolyFect (Qiagen, West Sussex, UK) according to the manufacturer's protocol. Whole cell homogenates were prepared 48 hr post-transfection by washing the cells with ice-cold 1×PBS and harvesting by scraping. Cells were collected and centrifuged for 10 min at 1000×g. Cell pellets were resuspended in ice-cold 1×PBS and homogenized using 2×1 mm zirkonium beads in a bullet blender for 20 s at max speed (NextAdvance, NY, USA). Homogenates were cleared by centrifugation (10 min, 4° C., 14.000×g). Protein concentration was determined using the Bradford protein assay. 150-200 μg protein was incubated with 5 nM ^3H-A and test compound in 1 ml total volume for 1 hr at 0-4° C. […] Proteins were then precipitated by addition of ice-cold acetone (4× of the assay volume), vortexing and incubation at −20° C. for 1 hr. Proteins were filtrated rapidly through GF/C unifilters (Whatman) and washed. The dried filters were added scintillation liquid and radioactivity measured on a Tricarb 2100 Scintillation counter (Packard).
A) Principle of photoaffinity labelling workflow. […] After introduction of biotin through a Staudinger-Bertozzi ligation to EZ-Link™ Phosphine-PEG3-Biotin (ThermoFisher Scientific), the biotin-labelled proteins were affinity-purified and subjected to LC-MS/MS analysis. […] C)^3H-A binding to cortical membranes from CAMK2A and CAMK2B knock-out mouse brains.
Human/rat CAMK2A expressed in HEK cells was assayed in an in-house established ^3H-A filtration binding assay performed on whole cell lysates of CAMK2A-transfected HEK293T cells.

A further series deals with T3, CAMK2B (Rattus norvegicus, UniProt P08413).
T3 construct: host or cells: HEK293T
T3 sequence (P08413 whole entry): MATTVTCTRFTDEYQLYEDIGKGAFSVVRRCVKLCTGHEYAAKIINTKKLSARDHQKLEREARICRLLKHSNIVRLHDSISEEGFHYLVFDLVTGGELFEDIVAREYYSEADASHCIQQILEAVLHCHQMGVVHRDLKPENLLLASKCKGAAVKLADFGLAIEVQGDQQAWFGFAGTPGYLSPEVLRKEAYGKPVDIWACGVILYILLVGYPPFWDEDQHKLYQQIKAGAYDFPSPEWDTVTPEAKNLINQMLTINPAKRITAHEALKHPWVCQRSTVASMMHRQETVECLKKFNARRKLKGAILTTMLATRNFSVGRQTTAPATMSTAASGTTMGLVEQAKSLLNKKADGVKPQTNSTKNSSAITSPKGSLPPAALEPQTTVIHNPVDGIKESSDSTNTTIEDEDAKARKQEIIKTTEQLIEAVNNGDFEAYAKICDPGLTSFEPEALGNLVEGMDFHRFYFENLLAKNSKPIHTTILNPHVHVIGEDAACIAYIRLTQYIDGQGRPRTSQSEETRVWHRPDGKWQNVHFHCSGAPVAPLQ
The series is described as follows: 3H-A binding to recombinant CAMK2B expressed in HEK293T cells. Conditions: HEK293T whole cell homogenate. The method, then:
HEK293T were cultured using standard conditions, using Dulbecco's modified Eagle Medium with GlutaMax, 10% fetal bovine serum and 1% penicillin-streptomycin, and incubated at 37° C. in a humidified atmosphere of […] and 5% CO2. Cells were transfected with rat CAMK2A (Origene construct RR201121) or rat CAMK2B (Origene construct RR200520) using PolyFect (Qiagen, West Sussex, UK) according to the manufacturer's protocol. Whole cell homogenates were prepared 48 hr post-transfection by washing the cells with ice-cold 1×PBS and harvesting by scraping. Cells were collected and centrifuged for 10 min at 1000×g. Cell pellets were resuspended in ice-cold 1×PBS and homogenized using 2×1 mm zirkonium beads in a bullet blender for 20 s at max speed (NextAdvance, NY, USA). Homogenates were cleared by centrifugation (10 min, 4° C., 14.000×g). Protein concentration was determined using the Bradford protein assay. 150-200 μg protein was incubated with 5 nM ^3H-A and test compound in 1 ml total volume for 1 hr at 0-4° C. […] Proteins were then precipitated by addition of ice-cold acetone (4× of the assay volume), vortexing and incubation at −20° C. for 1 hr. Proteins were filtrated rapidly through GF/C unifilters (Whatman) and washed. The dried filters were added scintillation liquid and radioactivity measured on a Tricarb 2100 Scintillation counter (Packard). […]

T2 sequence (P11275 whole entry): as the sequence (P11798 whole entry) above

In the case of `O=C([O-])C1=CC(O)CC1.[Na+]` (centres unmarked) [sodium salt of A], in the series on rodents, the “acute toxicity or sedation” value is “no apparent observations of acute toxicity or sedation”. For the same compound, the brain entry entry in series [1] is “readily enters the brain”.
For `[3H]C1(O)C=C(C(=O)O)CC1` (centres unmarked) [^3H-A], the “ex vivo specific binding in hippocampus and cortex vs cerebellum” value in series [2] is “Significant specific binding levels”. Further, the “specific binding to CAMK2A-transfected HEK293T whole cell homogenate” value at CAMK2A is 87%. For the same compound, at CAMK2B, the “specific binding at CAMK2B” value is on record as “no specific binding”.
